For one experiment, the target named is T1, Human plasma DPP-IV (Homo sapiens, UniProt P27487).
T1 construct: Human plasma DPP-IV; from tissue; host or cells: human plasma
The experiment in a line: Plasma DPP-IV inhibitory activity (fluorescence assay, Gly-Pro-MCA substrate), human plasma. The class given is biochemical. The conditions noted are these: human plasma (10-fold diluted), room temperature, 60 min. As to the method: (§1) (Plasma DPP-IV Inhibitory Activity)
(§2) The plasma DPP-IV inhibitory activity of human and rat was measured by the fluorescence assay method. Using Gly-Pro-MCA (Peptide Institute Inc.) as a DPP-IV specific fluorescent substrate, reaction solutions having the following compositions and containing test substances having various concentrations were incubated at room temperature for 60 min and the measured (SPECTRA FLUOR, TECAN) fluorescent intensity (Excitation 360 nm/Emission 465 nm) was taken as the DPP-IV activity.
(§3) As a buffer, 0.003% Brij-35-containing phosphate buffer (PBS, Sigma-Aldrich Co.) was used.
(§4) A reaction solution free of the test substance was used as a control.
(§5) The inhibitory rate of the test substance relative to the reaction of the control was calculated, and IC50 values were determined by logistic analysis. The IC50 values of the plasma DPP-IV inhibitory activity of the present invention as determined by the above method are shown in the following table.

Another experiment has as its target T2, Rat plasma DPP-IV (Rattus norvegicus, UniProt P14740).
T2 construct: Rat plasma DPP-IV; from tissue; host or cells: rat plasma
The experiment in a line: Plasma DPP-IV inhibitory activity (fluorescence assay, Gly-Pro-MCA substrate), rat plasma. The note with it: rat plasma (10-fold diluted), room temperature, 60 min. The class given is biochemical. As to the method:
as §1, §2, §3, §4, §5

T1 sequence (P27487 39-766 limits assumed): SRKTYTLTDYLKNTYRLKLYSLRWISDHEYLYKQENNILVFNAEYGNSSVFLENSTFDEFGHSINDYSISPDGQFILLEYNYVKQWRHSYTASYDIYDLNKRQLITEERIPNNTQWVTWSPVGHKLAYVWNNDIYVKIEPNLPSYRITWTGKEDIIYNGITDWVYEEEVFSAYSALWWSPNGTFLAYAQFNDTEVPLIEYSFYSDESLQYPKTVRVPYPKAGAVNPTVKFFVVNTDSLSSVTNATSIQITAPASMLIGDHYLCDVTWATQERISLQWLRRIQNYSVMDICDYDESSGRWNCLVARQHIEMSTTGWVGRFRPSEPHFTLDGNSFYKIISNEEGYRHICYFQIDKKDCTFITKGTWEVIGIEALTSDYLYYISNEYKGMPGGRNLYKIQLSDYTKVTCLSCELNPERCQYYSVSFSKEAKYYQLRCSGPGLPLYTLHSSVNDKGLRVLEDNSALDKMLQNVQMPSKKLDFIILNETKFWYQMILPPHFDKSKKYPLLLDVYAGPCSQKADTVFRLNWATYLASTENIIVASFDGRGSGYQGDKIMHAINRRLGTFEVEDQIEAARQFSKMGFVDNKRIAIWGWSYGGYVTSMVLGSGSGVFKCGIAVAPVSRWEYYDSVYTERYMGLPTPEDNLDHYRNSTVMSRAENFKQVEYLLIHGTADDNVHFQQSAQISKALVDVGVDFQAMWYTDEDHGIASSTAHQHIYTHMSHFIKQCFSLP
T2 sequence (P14740 38-767 limits assumed): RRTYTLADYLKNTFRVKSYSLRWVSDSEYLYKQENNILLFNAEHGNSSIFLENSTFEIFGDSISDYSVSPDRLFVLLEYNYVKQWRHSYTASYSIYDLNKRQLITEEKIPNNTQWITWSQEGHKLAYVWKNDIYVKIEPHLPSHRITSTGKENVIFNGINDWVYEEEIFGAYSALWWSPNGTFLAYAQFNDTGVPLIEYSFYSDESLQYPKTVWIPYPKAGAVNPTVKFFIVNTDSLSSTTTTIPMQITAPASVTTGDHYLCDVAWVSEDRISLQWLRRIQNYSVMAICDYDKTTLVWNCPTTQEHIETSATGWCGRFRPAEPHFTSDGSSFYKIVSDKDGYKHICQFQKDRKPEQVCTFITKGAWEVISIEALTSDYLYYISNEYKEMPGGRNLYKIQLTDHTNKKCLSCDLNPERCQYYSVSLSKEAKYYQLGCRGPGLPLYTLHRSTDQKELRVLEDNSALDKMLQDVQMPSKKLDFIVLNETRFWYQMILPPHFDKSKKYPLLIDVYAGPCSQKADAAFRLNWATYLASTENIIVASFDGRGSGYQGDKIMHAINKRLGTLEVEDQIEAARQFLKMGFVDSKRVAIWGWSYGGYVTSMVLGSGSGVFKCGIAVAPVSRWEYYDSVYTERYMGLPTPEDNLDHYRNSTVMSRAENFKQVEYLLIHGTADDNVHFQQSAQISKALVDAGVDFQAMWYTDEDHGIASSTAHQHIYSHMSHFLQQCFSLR

Take `N#Cc1ccc(N2CCN([C@H]3CC[C@@H]([C@H](N)C(=O)N4CCSC4)CC3)CC2)nc1` [Example 2, 3-((S)-2-amino-2-{cis-4-[4-(5-cyano-2-pyridyl)-1-piperazinyl]-1-cyclohexyl}acetyl)-1,3-thiazolidine]: the 50% inhibitory concentration (IC50) is 1.6 nM against Human plasma DPP-IV and 1.4 nM against Rat plasma DPP-IV.

Take `N[C@H](C(=O)N1CCSC1)[C@H]1CC[C@@H](N2CCN(c3nc4ccccc4s3)CC2)CC1` [Example 14, 3-((S)-2-amino-2-{cis-4-[4-(2-benzothiazolyl)-1-piperazinyl]-1-cyclohexyl}acetyl)-1,3-thiazolidine]: the figures for the IC50 against Human plasma DPP-IV and against Rat plasma DPP-IV were 2.1 nM and 1.4 nM, respectively.

As usually defined, the IC50 is the point on the concentration scale where inhibition reaches its midpoint. Low readings indicate higher potency, high ones lower potency.

The values above are taken from patent publication US7504423B2, “α-amino acid derivatives and use thereof as medicines” (Mitsubishi Tanabe Pharma Corporation, priority 2003, dated 2009).
